Reference: patent publication US20050032096A1, “Methods for predicting drug sensitivity in patients afflicted with hypertension” (deCODE genetics ehf., priority 2003, published 2005)

How the values were obtained:
[1] = tested on: patients with low renin hypertension; conditions: cited from earlier work
[2] = tested on: hypertensive patients; test: Clinical response to 8 weeks of drug therapy, patients categorized as responders or non-responders; type: in vivo, human; conditions: 8 weeks therapy; for patients who demonstrate a clinical response (responders): BP reduced by 10 mm/Hg systole and/or 6 mm/Hg diastole or more
Text: • a. Hypertension diagnosed by a Cardiologist. The method used to diagnose hypertension is based on the ICE-9 and ICD-10 classification system, and concurs with the diagnostic hypertension criteria outlined by the American Heart Association and includes the following measures: Blood pressure greater than 140 systolic and 90 diastolic (adult person). For this study, individuals will be recruited primarily with moderate to severe hypertension. • b. Patients with hypertension with a severity level that is judged to be appropriate to treatment with Ramace™ were recruited to participate in the study. Study patients signed a consent and donate a blood sample for the study. • c. Phenotype was confirmed by measurement of blood pressure levels at different time points. • d. Age 12-80 years. • e. Both males and females were recruited. • f. White Caucasian (Icelandic hypertensive patient population). • g. Ramace™ therapy for 8 weeks. Examination by a study cardiologist every 3 weeks who confirmed clinical response to Ramace™ therapy. • h. Response to Ramace™: Patients were categorized as either Ramace™ responders or Ramace™ non-responders. […] The same cardiologists examined all 57 patients before and after Ramace™ trial.
All patients recruited were treated with therapeutic doses of Ramace™ for minimum of 8 weeks and examined by the study cardiologist before and after starting the drug. Blood samples were drawn at a similar time (e.g., around 9 AM) in the morning from all patients. The dose of the ACE inhibitor was recorded for all patients, before and 4 weeks after the patient was started on the study drug. No diet restrictions are implemented.
(§1) • a. Hypertension diagnosed by a Cardiologist. The method used to diagnose hypertension is based on the ICE-9 and ICD-10 classification system, and concurs with the diagnostic hypertension criteria outlined by the American Heart Association and includes the following measures: Blood pressure greater than 140 systolic and 90 diastolic (adult person). For this study, individuals will be recruited primarily with moderate to severe hypertension. • b. Patients with hypertension with a severity level that is judged to be appropriate to treatment with Norvasc™ were recruited to participate in the study. Study patients signed a consent and donate a blood sample for the study. • c. Phenotype was confirmed by measurement of blood pressure levels at different time points. • d. Age 12-80 years. • e. Both males and females were recruited. • f. White Caucasian (Icelandic hypertensive patient population). • g. […] Response to Norvasc™: Patients were categorized as either Norvasc™ responders or Norvasc™ non-responders.
Blood samples were drawn at a similar time (e.g., around 9 AM) in the morning from all patients. The dose was recorded for all patients. No diet restrictions were implemented.
as §1, with “Cozaar™” for “Norvasc™”, “Cozaar™:” for “Norvasc™:”

[3] = tested on: patients with chronic stable angina; conditions: placebo 4.4%, P=NS; cited from earlier work
[4] = in vivo; cited from earlier work
[5] = molecular target: ACE (Homo sapiens, UniProt P12821); conditions: cited from earlier work
[6] = molecular target: T1, AT1 receptor (Homo sapiens, UniProt P30556); conditions: cited from earlier work
T1 sequence (P30556 1-359): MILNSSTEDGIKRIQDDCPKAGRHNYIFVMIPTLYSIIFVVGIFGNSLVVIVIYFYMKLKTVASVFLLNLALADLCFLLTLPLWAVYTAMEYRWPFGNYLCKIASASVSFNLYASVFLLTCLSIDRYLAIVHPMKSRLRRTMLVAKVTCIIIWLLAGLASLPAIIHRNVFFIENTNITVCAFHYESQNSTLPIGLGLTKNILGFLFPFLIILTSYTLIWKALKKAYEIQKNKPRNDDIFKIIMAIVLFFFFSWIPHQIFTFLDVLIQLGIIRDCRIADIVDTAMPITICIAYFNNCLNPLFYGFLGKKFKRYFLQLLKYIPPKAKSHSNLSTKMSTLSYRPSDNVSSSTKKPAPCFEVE

ACE, sequence (P12821 30-1306, species assumed): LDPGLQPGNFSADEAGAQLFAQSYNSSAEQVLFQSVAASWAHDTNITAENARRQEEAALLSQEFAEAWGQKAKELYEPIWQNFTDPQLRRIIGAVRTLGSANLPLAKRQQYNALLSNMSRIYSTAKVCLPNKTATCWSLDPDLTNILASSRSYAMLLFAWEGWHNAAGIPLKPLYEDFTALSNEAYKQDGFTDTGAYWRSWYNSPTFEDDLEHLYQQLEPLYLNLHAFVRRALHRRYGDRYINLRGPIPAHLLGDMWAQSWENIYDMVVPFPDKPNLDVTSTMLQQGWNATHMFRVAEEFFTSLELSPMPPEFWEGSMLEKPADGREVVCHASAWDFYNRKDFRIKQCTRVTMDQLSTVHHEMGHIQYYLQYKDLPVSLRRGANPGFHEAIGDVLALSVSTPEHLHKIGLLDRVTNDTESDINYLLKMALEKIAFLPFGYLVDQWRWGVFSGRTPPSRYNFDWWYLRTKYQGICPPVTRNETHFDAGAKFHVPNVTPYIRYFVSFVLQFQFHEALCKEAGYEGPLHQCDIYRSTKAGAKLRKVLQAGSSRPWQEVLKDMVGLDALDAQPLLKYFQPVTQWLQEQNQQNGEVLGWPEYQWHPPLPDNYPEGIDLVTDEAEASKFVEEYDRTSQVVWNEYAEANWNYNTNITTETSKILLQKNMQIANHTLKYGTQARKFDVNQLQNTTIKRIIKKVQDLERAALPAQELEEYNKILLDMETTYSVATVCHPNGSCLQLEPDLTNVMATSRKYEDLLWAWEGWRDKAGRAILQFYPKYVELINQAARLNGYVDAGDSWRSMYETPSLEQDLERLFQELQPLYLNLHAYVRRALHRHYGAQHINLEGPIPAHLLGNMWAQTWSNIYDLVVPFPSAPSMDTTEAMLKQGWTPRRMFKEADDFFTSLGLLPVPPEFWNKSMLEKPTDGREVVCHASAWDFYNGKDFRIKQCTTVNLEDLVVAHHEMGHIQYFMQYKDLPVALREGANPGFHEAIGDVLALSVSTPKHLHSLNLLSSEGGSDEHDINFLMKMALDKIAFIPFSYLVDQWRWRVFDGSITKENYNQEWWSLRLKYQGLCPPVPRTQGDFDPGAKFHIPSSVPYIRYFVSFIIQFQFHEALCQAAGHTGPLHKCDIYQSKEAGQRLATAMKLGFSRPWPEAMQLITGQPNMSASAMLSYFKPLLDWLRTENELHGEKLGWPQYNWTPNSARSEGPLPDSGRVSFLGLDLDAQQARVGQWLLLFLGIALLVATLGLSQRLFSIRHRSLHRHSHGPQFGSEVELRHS

| Structure (SMILES) | anti-hypertensive effect [1] | non-responders ([2]; of 57 hypertensive patients) | patients who demonstrate a clinical response (responders) ([2]; of 57 hypertensive patients) | patients who discontinued therapy due to adverse events [3] | non-responders ([2]; of 65 hypertensive patients) | patients who demonstrate a clinical response (responders) ([2]; of 65 hypertensive patients) | time to mean peak serum concentration [4] | inhibition of ACE [5] | partial agonist activity at the AT1 receptor [6] |
| --- | --- | --- | --- | --- | --- | --- | --- | --- | --- |
| CCOC(=O)[C@H](CCc1ccccc1)N[C@@H](C)C(=O)N1[C@H](C(=O)O)C[C@@H]2CCC[C@@H]21 [Ramace, ramipril] | anti-hypertensive | 22 patients | 35 patients |  |  |  |  |  |  |
| CCOC(=O)C1=C(COCCN)NC(C)=C(C(=O)OC)C1c1ccccc1Cl (centres unmarked) [Norvasc, amlodipine] |  |  |  | 2% | 19 patients | 46 patients |  |  |  |
| CCCCc1nc(Cl)c(CO)n1Cc1ccc(-c2ccccc2-c2nn[nH]n2)cc1 [Cozaar, Losartan potassium] |  |  |  |  | 18 patients | 47 patients | one | Neither losartan nor its active metabolite inhibits ACE | do not exhibit any partial agonist activity |
